These results are taken from ChEMBL document CHEMBL3091390, “Novel Mps1 kinase inhibitors: from purine to pyrrolopyrimidine and quinazoline leads” (Bioorg Med Chem Lett, 2013).

As a reminder, the IC50 is the concentration needed to halve the response being measured.

In one test the test system is HCT-116. Put plainly: Cytotoxicity against human HCT116 cells. The test is classed as functional, cell-based.
The target of test [1] is T1, Dual specificity protein kinase TTK (Homo sapiens, UniProt P33981).
T1 sequence (P33981 whole entry): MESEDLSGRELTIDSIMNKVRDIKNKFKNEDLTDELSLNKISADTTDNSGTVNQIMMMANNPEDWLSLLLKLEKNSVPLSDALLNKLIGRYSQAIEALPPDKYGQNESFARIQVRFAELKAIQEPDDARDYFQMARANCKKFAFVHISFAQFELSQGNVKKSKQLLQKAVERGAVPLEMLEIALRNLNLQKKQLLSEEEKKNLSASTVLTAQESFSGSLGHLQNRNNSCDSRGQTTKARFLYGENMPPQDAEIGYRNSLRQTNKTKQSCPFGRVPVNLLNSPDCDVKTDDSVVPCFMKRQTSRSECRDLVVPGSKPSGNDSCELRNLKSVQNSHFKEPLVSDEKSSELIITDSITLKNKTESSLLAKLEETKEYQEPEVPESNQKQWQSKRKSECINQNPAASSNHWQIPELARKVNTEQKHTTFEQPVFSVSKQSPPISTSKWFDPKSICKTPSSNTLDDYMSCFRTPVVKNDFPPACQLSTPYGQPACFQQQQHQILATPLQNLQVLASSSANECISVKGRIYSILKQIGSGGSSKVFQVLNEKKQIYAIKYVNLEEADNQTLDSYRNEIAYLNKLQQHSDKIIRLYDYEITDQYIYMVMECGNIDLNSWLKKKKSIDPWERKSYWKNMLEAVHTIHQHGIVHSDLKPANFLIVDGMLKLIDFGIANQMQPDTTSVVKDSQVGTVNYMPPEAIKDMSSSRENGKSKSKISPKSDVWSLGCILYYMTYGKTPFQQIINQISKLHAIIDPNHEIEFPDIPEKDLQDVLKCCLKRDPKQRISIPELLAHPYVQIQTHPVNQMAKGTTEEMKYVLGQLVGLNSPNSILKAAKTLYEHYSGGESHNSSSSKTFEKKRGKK
The test can be described thus: Inhibition of full-length Mps1 kinase (unknown origin).

In turn, `Cc1cc(N2CCOCC2)ccc1Nc1nc(NC2CCCCC2)c2nc[nH]c2n1` gave a half-inhibitory concentration (IC50) in the test with HCT-116 of 23 nM.
For the molecule `COc1cc(N2CCOCC2)ccc1Nc1ncc2ccc(-c3ccccc3)cc2n1`, the IC50 in test [1] was over 100 nM.
In turn, `COc1cc(N2CCN(S(C)(=O)=O)CC2)ccc1Nc1nccc(NC2CCCCC2)n1` displayed an IC50 in test [1] of over 100 nM.
For `COc1cc(N2CCN(S(C)(=O)=O)CC2)ccc1Nc1nccc(N(C)C2CCCCC2)n1`, the IC50 with HCT-116 was determined as 2000 nM; in test [1] it was 35 nM.
Turning to `COc1cc(N2CCN(S(C)(=O)=O)CC2)ccc1Nc1ncc(C)c(NC2CCCCC2)n1`, the IC50 in the test with HCT-116 was found to be 1500 nM; in test [1], 28 nM.
In test [1], `COc1cc(N2CCN(S(C)(=O)=O)CC2)ccc1Nc1ncc(C)c(N(C)C2CCCCC2)n1` gave an IC50 of over 100 nM.
Take `COc1cc(N2CCOCC2)ccc1Nc1ncc2ccn(C3CCCCC3)c2n1`: the figures for the IC50 (with HCT-116; in test [1]) were 7500 nM and 46 nM, respectively.
For the molecule `Cc1cc(N2CCOCC2)ccc1Nc1ncc2ccn(C3CCCCC3)c2n1`, the IC50 in the test on HCT-116 amounted to 8600 nM; in test [1] it was 22 nM.
On to `COc1cc(N2CCN(S(C)(=O)=O)CC2)ccc1Nc1ncc2ccn(C3CCCCC3)c2n1`, for which the IC50 with HCT-116 came out at 750 nM; in test [1] it was 20 nM.
With `COc1cc(N2CCN(S(C)(=O)=O)CC2)ccc1Nc1ncc2ccn(-c3ccccc3)c2n1`, the IC50 in test [1] was over 100 nM.
Regarding `COc1cc(N2CCN(S(C)(=O)=O)CC2)ccc1Nc1ncc2ccn(-c3ccccn3)c2n1`, the IC50 in the test with HCT-116 came out at 10000 nM; in test [1] it was 32 nM.
In turn, `COc1cc(N2CCN(S(C)(=O)=O)CC2)ccc1Nc1ncc2ccn(-c3cccnc3)c2n1` yielded an IC50 in test [1] of over 100 nM.
The same measure, in the same setting: with `COc1cc(N2CCOCC2)ccc1Nc1ncc2ccc(NC3CCCCC3)cc2n1` the figure was over 100 nM.
`COc1cc(N2CCOCC2)ccc1Nc1ncc2cccc(-c3ccccc3)c2n1`: the IC50 in the test on HCT-116 turned out to be 850 nM; in test [1] it was 12 nM.
In the case of `COc1cc(N2CCOCC2)ccc1Nc1ncc2cccc(NC3CCCCC3)c2n1`, the figures for the IC50 (with HCT-116; in test [1]) were 6320 nM and 9 nM, respectively.
Take `COc1cc(N2CCN(S(C)(=O)=O)CC2)ccc1Nc1ncc2cccc(-c3ccccc3)c2n1`: the IC50 in the test on HCT-116 turned out to be 1740 nM; in test [1], 5 nM.
As for `COc1cc(N2CCN(S(C)(=O)=O)CC2)ccc1Nc1ncc2cccc(-c3cccnc3)c2n1`, the half-inhibitory concentration (IC50) in the test with HCT-116 was 1580 nM; in test [1], 8 nM.
The corresponding values for `COc1cc(N2CCN(S(C)(=O)=O)CC2)ccc1Nc1ncc2cccc(NC3CCCCC3)c2n1` are 810 nM and 2 nM.
